Data set [1] can be described thus: mRNA encapsulation by Ribogreen RNA assay. The class given is physicochemical. The note with it: LNP: ionizable lipid/DSPC/cholesterol/DMG-PEG2000 about 50/10/38.5/1.5, eGFP mRNA, mRNA/ionizable lipid 1/10. On the procedure:
(§1) Lipid based nanoparticles were produced by microfluidic mixing of an mRNA solution in sodium acetate buffer (100 mM, pH 4) and lipid solution in a 2:1 volume ratio at a speed of 16 mL/min using the NanoAssemblr Benchtop (Precision Nanosystems). LNPs were produced at a standard molar ratio ionizable lipid/DSPC (Avanti Polar Lipids)/cholesterol (Sigma)/DMG-PEG2000 (Avanti Polar Lipids) of about 50/10/38.5/1.5. eGFP mRNA was encapsulated in all LNPs as reporter mRNA, at a mRNA/ionizable lipid molar ratio of 1/10. LNPs were dialyzed against TBS (10000 times more TBS volume than LNP volume) using slide-a-lyzer dialysis cassettes (20K MWCO, 3 mL, ThermoFisher). Size, polydispersity and zeta potential were measured with a Zetasizer Nano (Malvern). mRNA encapsulation was measured by standard Ribogreen RNA assay (Invitrogen).

Data set [2] is described as follows: LNP size and polydispersity measured with a Zetasizer Nano. The class given is physicochemical. The note with it: LNP: ionizable lipid/DSPC/cholesterol/DMG-PEG2000 about 50/10/38.5/1.5, eGFP mRNA, dialyzed against TBS; for size: in nm (unit assumed). On the procedure: as §1
The next data set concerns hEPO expression. Kind of data set: In vivo hEPO expression after IV mRNA LNP injection (hEPO ELISA). To be noted: hEPO mRNA LNPs, 10 μg mRNA intravenous in tail vein, different timepoints, FIGS. 3 A & B. On the set-up: species or system BALB/c mice. The method, then: LNPs were produced at a standard molar ratio ionizable lipid/DSPC/cholesterol/DMG-PEG2000 of about 50/10/38.5/1.5. Human erythropoietin (hEPO) mRNA was encapsulated in all LNPs at an mRNA/ionizable lipid molar ratio of 1/10.
BALB/c mice (female, 6 weeks old mice) were injected intravenously in the tail vein with 200 μl of the respective mRNA LNPs (10 μg mRNA, TBS buffer) or control buffer. Blood was collected from the submandibular vein at different timepoints after which hEPO concentrations were determined using hEPO ELISA assay kit (catalog #BMS2035-2—Thermofisher Scientific), according to the manufacturer's instructions.
A general note: In an ELISA, binding on a coated surface is turned into a signal by an enzyme label.

Regarding `CCCCCCCC/C=C\CCCCCCCC(=O)OCC(CNC(=O)OCCSSCCOC(=O)NCCN1CCCCCC1)OC(=O)CCCCCCC/C=C\CCCCCCCC` (stereo not shown) [ETG-23, reference compound], the “% encap” value in data set [1] came to 97%. In data set [2], this molecule yielded a PDI of 0.082 and a size of 75.97.

Take `CCCCCC/C=C\COC(=O)CCCCCCCN(CCCCCCCC(=O)OC(CCCCCCCC)CCCCCCCC)C(=O)OCCSSCCOC(=O)NCCN(C)C` [ETG-51]: in data set [1], the “% encap” value was 96%. Moreover, in data set [2], the PDI stood at 0.119 and the size was determined as 111.97.

With `CCCCCC/C=C\COC(=O)CCCCCCCN(CCCCCCCC(=O)OC(CCCCCCCC)CCCCCCCC)C(=O)OCCSSCCOC(=O)NCCN1CCCCCC1` [ETG-52], the “% encap” value in data set [1] came to 97%. Moreover, in data set [2], the PDI was determined as 0.099 and the size was found to be 90.70.

As for `CCCCCCCCCOC(=O)CCCCCCCN(CCCCCCCC(=O)OC(CCCCCCCC)CCCCCCCC)C(=O)OCCSSCCOC(=O)NCCN(C)C` [ETG-53], in data set [1], the “% encap” value is listed as 97%. For the same molecule, the “hEPO expression (serum concentration, area under curve)” value in the data set with hEPO expression was “higher hEPO expression compared to ETG-23 control”. In data set [2], this molecule yielded a PDI of 0.085 and a size of 103.23.

Consider `CCCCCCCCCOC(=O)CCCCCCCN(CCCCCCCC(=O)OC(CCCCCCCC)CCCCCCCC)C(=O)OCCSSCCOC(=O)NCCN1CCCCCC1` [ETG-54], for which the “% encap” value in data set [1] is 98%. Moreover, in data set [2], the PDI came to 0.150 and the size is 90.30.

For `CCCCCCCCC(CC)OC(=O)CCCCCCCN(CCCCCCCC(=O)OC(CCCCCCCC)CCCCCCCC)C(=O)OCCSSCCOC(=O)NCCN(C)C` (stereo not shown) [ETG-55], in data set [1], the “% encap” value worked out at 96%. In data set [2], this molecule displayed a PDI of 0.123 and a size of 93.73.

`CCCCCCCCC(CC)OC(=O)CCCCCCCN(CCCCCCCC(=O)OC(CCCCCCCC)CCCCCCCC)C(=O)OCCSSCCOC(=O)NCCN1CCCCCC1` (stereo not shown) [ETG-56]: in data set [1], the “% encap” value is 98%. In data set [2], this molecule displayed a PDI of 0.120 and a size of 86.26.

With `CCCCCCCCC(CCCCCCCC)OC(=O)CCCCCCCN(CCCCCC(=O)OC(CCCCCCCC)CCCCCCCC)C(=O)OCCSSCCOC(=O)NCCN(C)C` [ETG-57], in data set [1], the “% encap” value was 95%. In data set [2], this molecule displayed a PDI of 0.114 and a size of 109.10.

For the molecule `CCCCCCCCC(CCCCCCCC)OC(=O)CCCCCCCN(CCCCCC(=O)OC(CCCCCCCC)CCCCCCCC)C(=O)OCCSSCCOC(=O)NCCN1CCCCCC1` [ETG-58], the “% encap” value in data set [1] came to 98%. In addition, in data set [2], the PDI is reported as 0.086 and the size was determined as 101.50.
